# From PMC12519060, “The anabolic steroid stanozolol is a potent inhibitor of human MutT homolog 1” (Febs Letters, 2025)
# What was measured:
# [1] = target: T1, hMTH1 (human MutT homolog 1) (Homo sapiens, UniProt P36639); test: modified Malachite Green assay with inorganic pyrophosphatase; assay type: biochemical; set-up: gene NUDT1; E. coli-optimised cDNA in pET28a(+), expressed in E. coli BL21(DE3); His-tag removed with thrombin; monomer
# [2] = target: T1, hMTH1 (human MutT homolog 1); set-up: gene NUDT1; conditions: substrate dGTP 100 μM, 6 nM hMTH1, 10 mM Mg acetate, 1% DMSO, 22 °C, active site (crystal structure, metal free) buffer, no inhibition seen, bound not given
SMILES,IC50 [1] [nM],no inhibition [2]
C[C@]12Cc3c[nH]nc3C[C@@H]1CC[C@@H]1[C@@H]2CC[C@@]2(C)[C@H]1CC[C@]2(C)O [stanozolol],26,–
C[C@]12CCC(=O)C[C@@H]1CC[C@@H]1[C@@H]2CC[C@]2(C)[C@@H](O)CC[C@@H]12 [Dihydrotestosterone],–,while DHT did not show any inhibition of hMTH1 (Fig. S1)
